Data taken from patent publication US11439607B2 (Paracelsus Neuroscience I, LLC, priority 2016, dated 2022).
Like-named read-outs stand apart in the source and are kept apart here.

Assays:
Rat primary microglia = assay: Microglial NO release (measurement of nitrite) after LPS; type: cell-based; details: 24 hours
Experimental: Next, 3 EU/ml of ultra-pure Lipopolysaccharide (CSE, Associates of Cape Cod) was added to induce iNOS expression and NO synthesis. After a total incubation time of 24 hours, media was collected, spun down to remove cells and assayed for nitrite (the stable breakdown product of NO) using Griess Reagent (Promega, Madison Wis.).
After 24 hours, media was assayed for nitrite (stable metabolite of NO). […] Primary rat cortical microglia were also treated with LPS (3 EU/ml, 3 hours) to stimulate the production of pro-IL-1β.

[1] = Plasma, brain and spinal cord exposure in CCI rats; type: in vivo, rat; details: for Kp at 4 h / concentration at 4 h: male, Sprague-Dawley, rat; for concentration at 4 h: po
Experimental: Male Sprague-Dawley rats (Crl:SD, Charles River) weighing 200-350 g were dosed to determine tissue exposure at 10 mg/kg p.o. (n=3) for screening pharmacokinetics (PK), and at 10, 30 and 100 mg/kg p.o. for the CCI studies (n=3 from each treatment group taken from the last arm of study). […] The rats were then decapitated and trunk blood was collected to in K3EDTA containing tubes. Plasma samples were generated by centrifugation (3500×g), and stored frozen at −20° C. until bioanalysis. The brains were harvested immediately following blood collection and stored frozen until bioanalysis at −20° C. For CCI animals, the plasma and brain harvests as described for the screening PK, although the tissue collection was initiated after the behavioral assessment was completed, approximately 4 hours 15 minutes after dosing. For spinal column harvest, a 20-gauge needle on a 10 ml syringe filled with cold saline was inserted into the spinal cord. The saline was used to flush the spinal column out. The spinal column tissues were then stored frozen at −20° C. prior to exposure measurements.
Prior to analysis, the brain and spinal cord samples were thawed at room temperature, weighed and homogenized using a homogenizing solution (IPA/H2O/DMSO; 30:50:20) at a ratio of 3/1 (ml/g) to generate tissue homogenates. An aliquot of 50 μl plasma, or 50 μl brain and spinal cord homogenates is mixed with 150 μl of a DMSO/ACN (20:80) solution that contains an internal standard (50 ng/ml). The diluted plasma, brain and spinal cord sample is then centrifuged (˜500 g for 15 min at 10° C.), supernatant is removed and then injected (10 μl) onto LC/MS/MS system for analysis. An Atlantis T3 column 2.6μ C18, 50×2.1 mm (Waters, Mass.) was used for analytical separation of the acid. A 6-minute mobile phase gradient was employed with mobile phase A (0.1% formic acid in water) ramping down from 99% to 1% (0-4 minutes), and then ramping back up to 99% (4-6 minutes), while ramping up solvent B (1% formic acid in ACN), from 1% to 99% (0-4 minutes), and then ramping down to 1% (4-6 minutes). Spectra was acquired in positive SRM mode with the parent mass of 324 and a daughter ion of 228.

CCI rats = assay: Chronic constriction injury (CCI) model, von Frey paw withdrawal threshold; type: in vivo, rat; details: 4 hours after dosing
Experimental: Peripheral nerve injury was performed according to the method of Bennett and Xie (Bennett and Xie, 1988), with paw withdrawal thresholds to Von Frey filament stimulation measured as described previously (Chaplan et al., 1994; Tal and Bennett, 1994).
In the first cohort of nerve injured rats, hindpaw mechanical hypersensitivity was evident by day 7 and maintained for the duration of the experiment (see FIG. 4A). […] Experiments were run using a simple cross-over design. Tactile hypersensitivity of rats was evaluated one day prior to drug testing. Drugs were allowed to wash out for one week at which time the mechanical hypersensitivity was reassessed. Rats were then randomly re-assigned to groups prior to the next arm of the study being run. In the final arm, tissue was collected from 3 animals from each group immediately after behavioral assessment of allodynia. Dosing of drugs, assessment of mechanical thresholds and collection of tissues were performed by individual experimenters all blinded to treatments.
All CCI data are presented as mean+/−S.E.M. and were analyzed using ANOVA followed by Fisher's PLSD post-hoc analysis (StatView, Cary, N.C.) when appropriate.

melatonin 1A receptors = target: T1, melatonin 1A receptors (Homo sapiens, UniProt P48039); assay: Off target screen (CEREP panel) and dose response; type: binding
T1 construct: CEREP (contract screening)

κ-opioid receptors = target: T2, κ-opioid receptors (Homo sapiens, UniProt P41145); assay: Off target screen (CEREP panel) and dose response; type: binding
T2 construct: CEREP (contract screening)

Healthy rats [2] = assay: Healthy rats - Paw pressure test; type: in vivo; details: Senicapoc 100 mg/kg PO, 240 min after treatment
Experimental: (§1) Depending on the test, the percentage of activity was calculated from the mean value of the vehicle-treated animals and compared to naïve animals, control paw or cut-off value.

Healthy rats [3] = assay: Healthy rats - Tail flick test; type: in vivo; details: Senicapoc 100 mg/kg PO, 240 min after treatment
Experimental: as §1

Acetic acid test = Acetic acid test - Abdominal cramps; type: in vivo, rodent; details: Senicapoc 100 mg/kg PO, 240 min after treatment
Experimental: as §1

Formalin test = Formalin test - Score; type: in vivo, rodent; details: Senicapoc 100 mg/kg PO, 240 min after treatment
Experimental: as §1

Oxaliplatin model = assay: Oxaliplatin - Acetone test (reaction time); type: in vivo, rodent; details: Senicapoc 100 mg/kg PO, 240 min after treatment
Experimental: as §1

Brennan model = Brennan model - Electronic Von Frey test; type: in vivo, rodent; details: Senicapoc 100 mg/kg PO, 240 min after treatment
Experimental: as §1

[4] = rats, post dose; cited from earlier work
[5] = full dose response curve, functional testing

T2 sequence (P41145 whole entry): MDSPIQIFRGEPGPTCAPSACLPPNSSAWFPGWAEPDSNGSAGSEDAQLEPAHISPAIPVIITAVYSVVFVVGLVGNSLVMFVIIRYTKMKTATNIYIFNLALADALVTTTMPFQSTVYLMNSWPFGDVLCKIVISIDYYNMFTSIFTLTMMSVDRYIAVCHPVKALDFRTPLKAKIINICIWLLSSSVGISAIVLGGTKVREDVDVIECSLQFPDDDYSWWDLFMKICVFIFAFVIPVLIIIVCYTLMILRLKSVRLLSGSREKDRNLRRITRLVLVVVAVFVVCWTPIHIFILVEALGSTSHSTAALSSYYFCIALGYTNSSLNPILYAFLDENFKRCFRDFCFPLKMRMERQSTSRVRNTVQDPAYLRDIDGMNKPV
T1 sequence (P48039 whole entry): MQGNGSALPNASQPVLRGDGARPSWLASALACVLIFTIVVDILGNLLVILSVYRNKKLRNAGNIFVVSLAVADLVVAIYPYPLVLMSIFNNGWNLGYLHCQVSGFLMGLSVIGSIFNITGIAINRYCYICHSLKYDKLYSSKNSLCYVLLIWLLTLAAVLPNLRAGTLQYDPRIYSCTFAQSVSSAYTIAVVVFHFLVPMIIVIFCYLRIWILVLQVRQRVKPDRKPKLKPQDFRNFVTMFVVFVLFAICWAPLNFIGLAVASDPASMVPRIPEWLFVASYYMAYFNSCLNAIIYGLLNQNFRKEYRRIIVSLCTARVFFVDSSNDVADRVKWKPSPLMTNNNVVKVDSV

SMILES: NC(=O)C(c1ccccc1)(c1ccc(F)cc1)c1ccc(F)cc1 [Senicapoc]
- EC50 (Rat primary microglia; FIG. 2A legend, LPS 3EU/ml, n=3, read-out: EC50, inhibition of NO production (nitrite), representative experiment): 0.9 nM
- IC50 (Rat primary microglia; LPS 3 EU/ml, nitrite, read-out: IC50, inhibition of NO release from LPS-treated microglia (average)): 39 nM
- Spinal Cord ([1]; 10 mg/kg PO, 4 h, LLQ 773 nM): <LLQ^γ
- Plasma ([1]; 10 mg/kg PO, 4 h, n = 1 (2 samples <LLQ 773 nM)): 782^£ nM
- Free Plasma ([1]; 10 mg/kg PO, 4 h, n = 1, UBP = 0.027): 21^£ nM
- Kp at 4 h ([1]; brain, 10 mg/kg PO, read-out: Free Brain/Free Plasma): 1.1 ± 0.1
- Kp at 4 h ([1]; brain, 30 mg/kg PO, read-out: Free Brain/Free Plasma): 0.9 ± 0.1
- Kp at 4 h ([1]; brain, 100 mg/kg PO, read-out: Free Brain/Free Plasma): 1 ± 0.2
- concentration at 4 h ([1]; brain, 10 mg/kg, 10 mg/kg PO, UBBr = 0.008, read-out: Free Brain): 22 ± 1 nM
- concentration at 4 h ([1]; brain, 10 mg/kg, 10 mg/kg PO, mean ± SD, read-out: Brain): 2770 ± 380 nM
- concentration at 4 h ([1]; brain, 30 mg/kg, 30 mg/kg PO, UBBr = 0.008, read-out: Free Brain): 51 ± 16 nM
- concentration at 4 h ([1]; brain, 30 mg/kg, 30 mg/kg PO, mean ± SD, read-out: Brain): 6420 ± 1960 nM
- concentration at 4 h ([1]; brain, 100 mg/kg, 100 mg/kg PO, UBBr = 0.008, read-out: Free Brain): 106 ± 21 nM
- concentration at 4 h ([1]; brain, 100 mg/kg, 100 mg/kg PO, mean ± SD, read-out: Brain): 13300 ± 2620 nM
- concentration at 4 h ([1]; plasma, 30 mg/kg, 30 mg/kg PO, UBP = 0.027, read-out: Free Plasma): 56 ± 12 nM
- concentration at 4 h ([1]; plasma, 30 mg/kg, 30 mg/kg PO, mean ± SD, read-out: Plasma): 2060 ± 452 nM
- concentration at 4 h ([1]; plasma, 100 mg/kg, 100 mg/kg PO, UBP = 0.027, read-out: Free Plasma): 103 ± 3 nM
- concentration at 4 h ([1]; plasma, 100 mg/kg, 100 mg/kg PO, mean ± SD, read-out: Plasma): 3800 ± 93 nM
- Kp at 4 h ([1]; spinal cord, 30 mg/kg PO, read-out: Free Spinal Cord/Free Plasma): 0.8 ± 0.6
- Kp at 4 h ([1]; spinal cord, 100 mg/kg PO, read-out: Free Spinal Cord/Free Plasma): 0.7 ± 0.3
- concentration at 4 h ([1]; spinal cord, 30 mg/kg, 30 mg/kg PO, brain free fraction 0.008 used, read-out: Free Spinal Cord): 38 ± 17 nM
- concentration at 4 h ([1]; spinal cord, 30 mg/kg, 30 mg/kg PO, mean ± SD, read-out: Spinal Cord): 3400 ± 2740 nM
- concentration at 4 h ([1]; spinal cord, 100 mg/kg, 100 mg/kg PO, brain free fraction 0.008 used, read-out: Free Spinal Cord): 95 ± 17 nM
- concentration at 4 h ([1]; spinal cord, 100 mg/kg, 100 mg/kg PO, mean ± SD, read-out: Spinal Cord): 11900 ± 2180 nM
- Reversal of mechanical hypersensitivity (tactile allodynia) (CCI rats; 100 mg/kg p.o.): 48%
- Effect on injury-induced nociceptive behaviors at the low doses (CCI rats; low doses (10, 30 mg/kg p.o.)): lack of significant effect
- inhibition at 10 µM (melatonin 1A receptors; 10 μM): > 50%
- IC50 (melatonin 1A receptors; [5]): 1700 nM
- inhibition at 10 µM (κ-opioid receptors; 10 μM): > 50%
- IC50 (κ-opioid receptors; [5]): 19000 nM
- % of activity vs. vehicle (Healthy rats [2]): −12%
- % of activity vs. vehicle (Healthy rats [3]): 9%
- % of activity vs. vehicle (Acetic acid test): −32%
- % of activity vs. vehicle (Formalin test; early phase): 14%
- % of activity vs. vehicle (Formalin test; late phase): 8%
- % of activity vs. vehicle (Oxaliplatin model): 68%
- % of activity vs. vehicle (Brennan model): −7%
- Tmax (time of maximum plasma concentration) [4]: 4 h
